Assay results published in US20140057880A1, “ANTCIN DERIVATIVES IN COMBINATION WITH ANTI-CANCER DRUGS IN THE TREATMENT AND/OR PREVENTION OF TUMORS” (Taiwan Antitumor Biotech Co., Ltd., priority 2012, published 2014).
≈ marks a conversion by molar mass, not a printed value. Like-named read-outs stand apart in the source and are kept apart here.

Columns and labels:
CCD-966SK cells = assay: Cell viability assay (MTT assay), normal cell line CCD-966SK; assay type: cell-based
HepG2 cells [1] = assay: cells; details: Homo sapiens, HepG2, 24 h, read-out: IC50 of HepG2 cells
human cancer cells = human cancer cells rather than normal cells; cited from earlier work
HepG2 cells [2] = test system: HepG2 cells

IC50 (HepG2 cells [1])	SMILES	selective inhibition of proliferation (human cancer cells)	further results
~25 µg/mL (≈ 62.7 µM)	CCN(CC)CCNC(=O)c1c(C)[nH]c(/C=C2\C(=O)Nc3ccc(F)cc32)c1C [sunitinib]	–	killing of normal cells (CCD-966SK cells) (CCD-966SK cells; sunitinib alone at about 25 μg/ml (FIG. 10)): also killed
–	C=C(CC[C@@H](C)[C@H]1CC[C@H]2C3=C(C(=O)C[C@]12C)[C@@]1(C)CCC(=O)[C@@H](C)C1C[C@@H]3O)C(C)C(=O)O (stereo partly shown) [Antcin C, 4amethylergosta-8,24(28)-dien-3,11-trion-7P-26-oic acid]	selectively inhibit proliferation of human cancer cells rather than normal cells	–
–	CC/C(=C(\c1ccccc1)c1ccc(OCCN(C)C)cc1)c1ccccc1 [tamoxifen]	–	killing of HepG2 cells (HepG2 cells [2]; 12.5 μg/ml tamoxifen alone): cannot be completely killed
–	C=C(CC[C@@H](C)[C@H]1CC[C@H]2C3=C(C(=O)C[C@]12C)[C@@]1(C)CCC(=O)[C@@H](C)[C@@H]1CC3)[C@@H](C)C(=O)O [Antcin A, 4α-methylergosta-8,24(28)-diene-3,11-dione-26-oic acid]	selectively inhibit proliferation of human cancer cells rather than normal cells	–
200 µg/mL (≈ 1540 µM)	O=c1[nH]cc(F)c(=O)[nH]1 [5FU, 5-fluorouracil]	–	killing of HepG2 cells (HepG2 cells [2]; 5FU alone, high concentration): cannot be completely killed
–	C=C(CC[C@@H](C)[C@H]1CC[C@H]2C3=C(C(=O)C[C@]12C)[C@@]1(C)CCC(=O)[C@@H](C)[C@@H]1CC3)C(C)C(=O)OC (stereo partly shown) [Methyl antcinate A]	selectively inhibit proliferation of human cancer cells rather than normal cells	–

SMILES	IC50 (HepG2 cells [1])	selective inhibition of proliferation (human cancer cells)	further results
O=C1c2c(O)ccc(O)c2C(=O)c2c(NCCNCCO)ccc(NCCNCCO)c21 [mitoxantrone]	~2.5 µg/mL (≈ 5.62 µM)	–	viability of normal cells (CCD-966SK cells) (CCD-966SK cells; mitoxantrone alone at about 2.5 μg/ml (FIG. 12)): reduced
